According to publication PMC11873650 (Acta Pharmaceutica Sinica. B, 2024):

Columns and labels:
[1] = target: phosphorylated PAK4 (p-PAK4) (Homo sapiens, UniProt O96013); experiment: Western blot of PAK4 phosphorylation in MIA PaCa-2 cells; assay type: cell-based; conditions: for level of p-PAK4: MIA PaCa-2 cells, 1 μmol/L, 72 h
MIA PaCa-2 xenograft = conditions: 100 mg/kg q.d. intraperitoneally
[2] = tested on: phosphorylated β-Catenin (p-β-Catenin); experiment: Western blot of β-Catenin phosphorylation in MIA PaCa-2 cells; assay type: cell-based, human; conditions: for level of p-β-Catenin: MIA PaCa-2 cells, 1 μmol/L, 72 h
Pharmacokinetics in rats = assay type: in vivo; conditions: rat, plasma
Pan02 allograft = experiment: Pan02 syngeneic model; assay type: in vivo, C57BL/6 mice; conditions: 100 mg/kg intraperitoneally three times per five days, 26 days

phosphorylated PAK4 (p-PAK4), sequence (O96013 whole entry): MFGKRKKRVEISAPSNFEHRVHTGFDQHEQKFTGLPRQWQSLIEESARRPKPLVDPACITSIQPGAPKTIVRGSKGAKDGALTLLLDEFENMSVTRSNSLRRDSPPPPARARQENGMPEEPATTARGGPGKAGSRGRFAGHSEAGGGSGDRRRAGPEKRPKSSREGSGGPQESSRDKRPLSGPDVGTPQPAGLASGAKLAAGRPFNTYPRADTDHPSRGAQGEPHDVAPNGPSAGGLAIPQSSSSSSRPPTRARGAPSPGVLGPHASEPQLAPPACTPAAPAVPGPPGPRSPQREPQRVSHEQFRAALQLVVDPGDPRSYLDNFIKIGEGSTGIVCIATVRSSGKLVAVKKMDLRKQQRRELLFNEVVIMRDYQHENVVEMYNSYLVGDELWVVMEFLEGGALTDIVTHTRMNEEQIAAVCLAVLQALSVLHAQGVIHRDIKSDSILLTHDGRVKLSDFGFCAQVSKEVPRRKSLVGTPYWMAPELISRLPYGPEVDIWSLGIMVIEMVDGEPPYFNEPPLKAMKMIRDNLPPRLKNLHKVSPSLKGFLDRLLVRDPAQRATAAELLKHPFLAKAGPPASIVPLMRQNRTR

level of p-PAK4 [1]	Compound	IC50 [1]	mortality (MIA PaCa-2 xenograft; 20-day study)	tumor growth inhibition rate (TGI) (MIA PaCa-2 xenograft; 20 days)	IC50 ([2]; Homo sapiens, MIA PaCa-2, 72 h, read-out: IC50 against p-β-Catenin)	AUC(0-t) (Pharmacokinetics in rats; iv, 1 mg/kg)	AUC(0-t) (Pharmacokinetics in rats; po, 3 mg/kg)	tumor growth inhibition (Pan02 allograft)	level of p-β-Catenin [2]
	Nc1ccc(/C=C/C(=O)NCc2cc3cc(-c4ccc(C(=O)N5CCC(F)(F)CC5)cc4)cc(-c4ccc(F)cc4)c3o2)cn1 [Compound 4]	1.89 µM	two mice	77.8%	2.07 µM	94400 ng·h/mL	55500 ng·h/mL	modest tumor growth inhibition	
superior to 4	Nc1ccc(/C=C/C(=O)N2CCc3c(oc4c(-c5ccc(F)cc5)cc(-c5ccc(C(=O)N6CCOCC6)nn5)cc34)C2)cn1 [Compound 19, (E)-3-(6-Aminopyridin-3-yl)-1-(8-(4-fluorophenyl)-6-(6-(morpholine-4-carbonyl)pyridazin-3-yl)-3,4-dihydrobenzofuro[2,3-c]pyridin-2(1H)-yl)prop-2-en-1-one]								superior to 4
superior to 4	Nc1ccc(/C=C/C(=O)N2CCc3c(oc4c(-c5ccc(F)cc5)cc(-c5ccc(C(=O)N6CCC(F)(F)CC6)nn5)cc34)C2)cn1 [Compound 18, (E)-3-(6-Aminopyridin-3-yl)-1-(6-(6-(4,4-difluoropiperidine-1-carbonyl)pyridazin-3-yl)-8-(4-fluorophenyl)-3,4-dihydrobenzofuro[2,3-c]pyridin-2(1H)-yl)prop-2-en-1-one]								superior to 4
